Measurements: article PMC7660650, “Chemical Starting Matter for HNF4α Ligand Discovery and Chemogenomics” (International Journal of Molecular Sciences, 2020)
Values joined by “and” are separate entries in the source; they are usually repeats but may differ in a detail not shown here. Identical values can stand only once.

The compounds below were run against T1, Gal4-HNF4α (human HNF4α LBD) (Homo sapiens, UniProt P41235) (assay: Hybrid Gal4-HNF4α reporter gene assay in transiently transfected HEK293T cells). Conditions: not given.
T1 construct: uniprot entry: P41235-1, residues 142-377; expressed in transfected cells; host or cells: HEK293T
T1 sequence (P41235 142-377): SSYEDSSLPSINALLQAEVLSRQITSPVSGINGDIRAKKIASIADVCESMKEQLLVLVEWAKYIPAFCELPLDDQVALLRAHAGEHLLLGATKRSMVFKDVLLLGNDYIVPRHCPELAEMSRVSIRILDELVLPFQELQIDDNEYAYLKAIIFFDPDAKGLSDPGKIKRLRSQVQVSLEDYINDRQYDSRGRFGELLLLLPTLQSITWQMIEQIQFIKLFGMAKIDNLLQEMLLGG
Format: cell-based

Row | Compound | HNF4a-screening_activity_(mean_of_n=2)
1 | Nc1cc2ccccc2oc1=O [Prestw-Frag-1001, Nc1cc2ccccc2oc1=O] | 0.9336 and 1.001

Same assay, conditions: Table S1, primary screening, 50 µM

Row | Compound | HNF4a-screening_activity_(mean_of_n=2)
2 | CN1C2CCC1CC(O)C2 (stereo not shown) [Prestw-Frag-0608, CN1C2CCC1CC(O)C2] | 1.089 and 1.102
3 | CC(C)(C)NCC(O)COc1ccccc1C1CCCC1 (stereo not shown) [Prestw-Frag-0674, CC(C)(C)NCC(O)COc1ccccc1C1CCCC1] | 1.434
4 | O=c1ccc2ccccc2o1 [Prestw-Frag-1000, O=c1ccc2ccccc2o1] | 1.227
5 | Cc1cc(-c2ccccc2)nnc1N [Prestw-Frag-1003, Cc1cc(nnc1N)-c1ccccc1] | 1.014 and 1.217
6 | NC(=O)NS(=O)(=O)c1ccccc1 [Prestw-Frag-1006, NC(=O)NS(=O)(=O)c1ccccc1] | 1.153 and 1.01
7 | CC(=O)Nc1nncs1 [Prestw-Frag-1008, CC(=O)Nc1nncs1] | 1.066 and 0.8521
8 | Nc1nncs1 [Prestw-Frag-1009, Nc1nncs1] | 1.011
9 | COC(=O)C(c1ccccc1)c1ccccc1 [Prestw-Frag-1013, COC(=O)C(c1ccccc1)c1ccccc1] | 1.409 and 1.217
10 | c1ccc2c3c([nH]c2c1)CNCC3 [Prestw-Frag-1014, C1Cc2c(CN1)[nH]c1ccccc21] | 0.999 and 1.943
11 | C[N+](C)(CCO)Cc1ccccc1 [Prestw-Frag-1017, C[N+](C)(CCO)Cc1ccccc1] | 0.8969 and 1.169
12 | NC(=O)Cc1cccs1 [Prestw-Frag-1019, NC(=O)Cc1cccs1] | 1.073 and 1.154
13 | Cc1cc(=O)n(-c2ccccc2)[nH]1 [Prestw-Frag-1028, Cc1cc(=O)n([nH]1)-c1ccccc1] | 1.027
14 | NCCCCc1ccccc1 [Prestw-Frag-1031, NCCCCc1ccccc1] | 1.332
15 | Cn1nnnc1S [Prestw-Frag-1032, Cn1nnnc1S] | 1.09
16 | COc1ccc(Cc2ccc(OC)cc2)cc1 [Prestw-Frag-1033, COc1ccc(Cc2ccc(OC)cc2)cc1] | 1.259 and 1.114
17 | NCc1c(N)ccc(Cl)c1Cl [Prestw-Frag-1039, NCc1c(N)ccc(Cl)c1Cl] | 1.196 and 1.044
18 | O=C(O)c1ccccc1O [Prestw-Frag-1045, OC(=O)c1ccccc1O] | 1.058
19 | CCC(=O)Nc1ncnc2[nH]cnc12 [Prestw-Frag-1047, CCC(=O)Nc1ncnc2[nH]cnc12] | 0.8266 and 1.023
20 | Nc1nc2ccccc2n1Cc1ccc(F)cc1 [Prestw-Frag-1050, Nc1nc2ccccc2n1Cc1ccc(F)cc1] | 0.6752 and 1.069
21 | COc1ccc(CCN2CCC(N)CC2)cc1 [Prestw-Frag-1051, COc1ccc(CCN2CCC(N)CC2)cc1] | 1.433
22 | CC(C)(Oc1ccccc1)C(=O)O [Prestw-Frag-1053, CC(C)(Oc1ccccc1)C(O)=O] | 0.9983 and 1.387
23 | Nc1ccc[nH]c1=O [Prestw-Frag-1060, Nc1ccc[nH]c1=O] | 1.316 and 1.113
24 | COc1cc2c(cc1O)CCN[C@H]2C [Prestw-Frag-1063, COc1cc2[C@H](C)NCCc2cc1O] | 1.128

Row | Compound | HNF4a-screening_activity_(mean_of_n=2)
25 | COc1ccc(CCN)cc1O [Prestw-Frag-1064, COc1ccc(CCN)cc1O] | 1.012
26 | O=[N+]([O-])c1ccc(CO)cc1 [Prestw-Frag-1071, OCc1ccc(cc1)[N+]([O-])=O] | 1.036 and 1.173
27 | CCC1=C(C)CN(C(=O)NCCc2ccccc2)C1=O [Prestw-Frag-1075, CCC1=C(C)CN(C(=O)NCCc2ccccc2)C1=O] | 1.214
28 | NCCc1ccc(S(N)(=O)=O)cc1 [Prestw-Frag-1076, NCCc1ccc(cc1)S(N)(=O)=O] | 1.134 and 1.077
29 | CC(=O)c1cc(Cl)ccc1O [Prestw-Frag-1083, CC(=O)c1cc(Cl)ccc1O] | 1.17
30 | CCN(CC)CCNC(=O)c1ccccc1O [Prestw-Frag-1086, CCN(CC)CCNC(=O)c1ccccc1O] | 1.563 and 0.9485
31 | O=c1[nH]c2ccccc2o1 [Prestw-Frag-1087, O=c1[nH]c2ccccc2o1] | 1.002 and 1.32
32 | CC(=O)c1ccc(N2CCNCC2)c(F)c1 [Prestw-Frag-1094, CC(=O)c1ccc(N2CCNCC2)c(F)c1] | 1.1 and 1.293
33 | Cc1ncsc1CCO [Prestw-Frag-1098, Cc1ncsc1CCO] | 1.111
34 | NC(=O)[C@H](N)c1ccccc1 [Prestw-Frag-1099, N[C@@H](C(N)=O)c1ccccc1] | 1.079
35 | Clc1ccc2c(c1)Nc1ccccc1CC2 [Prestw-Frag-1101, Clc1ccc2CCc3ccccc3Nc2c1] | 2.203
36 | OC(c1ccccc1)c1ccc(Cl)cc1 (stereo not shown) [Prestw-Frag-1106, OC(c1ccccc1)c1ccc(Cl)cc1] | 0.8543
37 | c1ccc(N2CCNCC2)nc1 [Prestw-Frag-1110, C1CN(CCN1)c1ccccn1] | 1.308
38 | COC(=O)c1scc(C)c1N [Prestw-Frag-1111, COC(=O)c1scc(C)c1N] | 1.183
39 | CCN(Cc1ccccc1)c1ccccc1 [Prestw-Frag-1121, CCN(Cc1ccccc1)c1ccccc1] | 1.173
40 | OC(c1ccccc1)c1ccccc1 [Prestw-Frag-1122, OC(c1ccccc1)c1ccccc1] | 1.034
41 | NCC(CC(=O)O)c1ccccc1 (stereo not shown) [Prestw-Frag-1125, NCC(CC(O)=O)c1ccccc1] | 0.6886
42 | O=C(O)CCc1ccc(Cl)cc1 [Prestw-Frag-1126, OC(=O)CCc1ccc(Cl)cc1] | 0.7294
43 | Cc1oncc1C(N)=O [Prestw-Frag-1128, Cc1oncc1C(N)=O] | 0.9735 and 0.9722
44 | Cc1c(O)c2ccccc2oc1=O [Prestw-Frag-1130, Cc1c(O)c2ccccc2oc1=O] | 0.9979
45 | O=c1cc(O)c2ccccc2o1 [Prestw-Frag-1131, Oc1cc(=O)oc2ccccc12] | 1.185
46 | COc1ccc2ccncc2c1 [Prestw-Frag-1133, COc1ccc2ccncc2c1] | 1.332
47 | Cn1c(=O)[nH]c2nc[nH]c2c1=O [Prestw-Frag-1138, Cn1c(=O)[nH]c2nc[nH]c2c1=O] | 0.9492

Row | Compound | HNF4a-screening_activity_(mean_of_n=2)
48 | CNC(C)(C)Cc1ccccc1 [Prestw-Frag-1141, CNC(C)(C)Cc1ccccc1] | 1.206
49 | COc1cc(N)ncn1 [Prestw-Frag-1154, COc1cc(N)ncn1] | 1.214
50 | Oc1cccc2c1CCCC2 [Prestw-Frag-1156, Oc1cccc2CCCCc12] | 0.9426
51 | Cc1nnc(N)s1 [Prestw-Frag-1161, Cc1nnc(N)s1] | 1.123
52 | C(=C\c1ccccc1)/CN1CCNCC1 [Prestw-Frag-1163, C(\C=C\c1ccccc1)N1CCNCC1] | 1.316
53 | c1ccc2[nH]c(CN3CCCC3)nc2c1 [Prestw-Frag-1164, C(N1CCCC1)c1nc2ccccc2[nH]1] | 0.7439 and 0.7907
54 | Clc1ccc(Cn2cnc3ccccc32)cc1 [Prestw-Frag-1165, Clc1ccc(Cn2cnc3ccccc23)cc1] | 0.6294 and 0.7204
55 | COc1ccc(N)nn1 [Prestw-Frag-1167, COc1ccc(N)nn1] | 1.35
56 | OC(Cn1ccnc1)c1ccc(Cl)cc1Cl (stereo not shown) [Prestw-Frag-1182, OC(Cn1ccnc1)c1ccc(Cl)cc1Cl] | 1.1
57 | COc1cc2ccncc2cc1OC [Prestw-Frag-1183, COc1cc2ccncc2cc1OC] | 1.218
58 | Nc1ccc(Cl)nn1 [Prestw-Frag-1184, Nc1ccc(Cl)nn1] | 0.9468
59 | CN1CCC[C@H]1c1cccnc1 [Prestw-Frag-1187, CN1CCC[C@H]1c1cccnc1] | 1.172
60 | Cc1c(N)cccc1C(F)(F)F [Prestw-Frag-1189, Cc1c(N)cccc1C(F)(F)F] | 1.319
61 | O=C(O)c1cccnc1Nc1ccccc1 [Prestw-Frag-1191, OC(=O)c1cccnc1Nc1ccccc1] | 1.24
62 | c1ccc(C(CCN2CCCCC2)c2ccccc2)cc1 [Prestw-Frag-1193, C(CN1CCCCC1)C(c1ccccc1)c1ccccc1] | 0.8943 and 1.009
63 | CC(Oc1ccccc1)C(N)=O (stereo not shown) [Prestw-Frag-1200, CC(Oc1ccccc1)C(N)=O] | 0.9571 and 0.9481
64 | CN1CCN(c2nccc(N)n2)CC1 [Prestw-Frag-1204, CN1CCN(CC1)c1nccc(N)n1] | 1.248
65 | CS(=O)(=O)c1ccc(N)cc1 [Prestw-Frag-1214, CS(=O)(=O)c1ccc(N)cc1] | 1.202
66 | CCCCOc1cc(C(=O)NC)c2ccccc2n1 [Prestw-Frag-1228, CCCCOc1cc(C(=O)NC)c2ccccc2n1] | 0.8368 and 0.967
67 | COc1cccc2c1CCCC2=O [Prestw-Frag-1236, COc1cccc2C(=O)CCCc12] | 1.287
68 | Oc1ccc(-c2ccc(F)cc2F)cc1 [Prestw-Frag-1237, Oc1ccc(cc1)-c1ccc(F)cc1F] | 0.9944
69 | O=C(O)c1cccc(-c2ccc(F)cc2F)c1 [Prestw-Frag-1238, OC(=O)c1cccc(c1)-c1ccc(F)cc1F] | 1.01
70 | O=C(O)c1cc(-c2ccc(F)cc2)ccc1O [Prestw-Frag-1239, OC(=O)c1cc(ccc1O)-c1ccc(F)cc1] | 1.018 and 1.049
